Read-outs that look alike come from different tables or passages of the source.
Key:
[1] = test system: locomotor activity in mice; assay: Locomotor (ambulatory) activity; type: in vivo, Swiss Webster mice; conditions: i.p., FIGS. 5-8
Source text: Ambulatory activity of Male Swiss Webster mice (Taconic Farms) were studied in 40 cm^3 clear acrylic chambers. The acrylic chambers were placed inside monitors (Omnitech Electronics, Columbus, Ohio) that were equipped with light sensitive detectors, spaced 2.5 cm apart along two perpendicular walls. Mounted on the opposing walls were infrared light sources that were directed at the detectors. One count of horizontal activity was registered each time the subject interrupted two successive beams. Repetitive interruptions of the same beam due to behaviors, such as head bobbing or grooming, were not counted. Mice were injected and immediately placed in the apparatus for 60 min. Injections were administered i.p. in volumes of 1 mL/ 100 g. Each dose was studied in eight mice, and mice were used only once.
Horizontal activity counts are shown for the first 30 min of the session in which the maximal stimulation of activity was obtained. Each dose-effect curve was analyzed using standard analysis of variance (ANOVA) and post-hoc testing determine significance of effects at individual doses.

[2] = animal models, literature; cited from earlier work
[3] = biological target: norepinephrine transporter (NET) (Rattus norvegicus, UniProt Q63380); assay: biochemical; type: binding; conditions: for inhibition at 10 µM: read-out: NET (% I@10 μM)
Chain of norepinephrine transporter (NET) (Rattus norvegicus, UniProt Q63380) (Q63380 1-617): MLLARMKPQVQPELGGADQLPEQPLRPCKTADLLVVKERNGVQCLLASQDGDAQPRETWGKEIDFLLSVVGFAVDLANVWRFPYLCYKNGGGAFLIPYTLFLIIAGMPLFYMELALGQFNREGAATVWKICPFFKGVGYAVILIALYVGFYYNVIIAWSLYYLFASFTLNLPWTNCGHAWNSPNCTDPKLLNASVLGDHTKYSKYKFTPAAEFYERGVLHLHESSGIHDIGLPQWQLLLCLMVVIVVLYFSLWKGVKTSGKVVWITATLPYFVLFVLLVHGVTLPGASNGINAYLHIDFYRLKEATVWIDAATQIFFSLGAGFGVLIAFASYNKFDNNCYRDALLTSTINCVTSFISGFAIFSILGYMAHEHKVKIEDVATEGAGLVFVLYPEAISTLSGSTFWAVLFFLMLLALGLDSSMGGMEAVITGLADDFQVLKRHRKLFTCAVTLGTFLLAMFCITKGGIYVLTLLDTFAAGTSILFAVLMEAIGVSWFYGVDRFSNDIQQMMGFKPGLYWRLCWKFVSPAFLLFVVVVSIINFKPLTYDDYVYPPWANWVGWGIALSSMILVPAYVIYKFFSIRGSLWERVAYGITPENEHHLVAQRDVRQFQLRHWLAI

[4] = test system: norepinephrine transporter (NET); assay: biochemical; type: binding; conditions: DAT vs. NET
[5] = biological target: serotonin transporter (5HTT) (Rattus norvegicus, UniProt P31652); assay: Serotonin transporter binding ([^3 H]citalopram), NOVASCREEN; conditions: for inhibition at 10 µM: read-out: 5HTT (% I@10 μM)
Chain of serotonin transporter (5HTT) (P31652 whole entry): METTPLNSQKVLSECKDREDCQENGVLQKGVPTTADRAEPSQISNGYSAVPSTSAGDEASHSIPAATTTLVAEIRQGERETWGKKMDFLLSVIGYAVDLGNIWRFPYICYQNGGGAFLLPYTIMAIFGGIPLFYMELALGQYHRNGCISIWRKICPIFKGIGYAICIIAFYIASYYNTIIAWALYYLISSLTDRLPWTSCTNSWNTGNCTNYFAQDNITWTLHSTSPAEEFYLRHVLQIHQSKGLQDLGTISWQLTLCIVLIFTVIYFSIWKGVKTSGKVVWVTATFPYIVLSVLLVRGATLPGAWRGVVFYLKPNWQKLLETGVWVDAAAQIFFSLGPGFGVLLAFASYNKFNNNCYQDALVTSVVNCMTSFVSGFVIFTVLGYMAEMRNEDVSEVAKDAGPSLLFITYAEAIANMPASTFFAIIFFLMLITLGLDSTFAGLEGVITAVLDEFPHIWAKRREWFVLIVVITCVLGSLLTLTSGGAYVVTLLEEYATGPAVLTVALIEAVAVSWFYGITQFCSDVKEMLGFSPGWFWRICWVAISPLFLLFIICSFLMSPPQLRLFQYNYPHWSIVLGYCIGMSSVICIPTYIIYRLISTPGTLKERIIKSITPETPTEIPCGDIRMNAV
Source text: (§1) Serotonin (5-HTT), norepinephrine transporter (NET) and muscarinic m1 and m2 receptor binding data were provided by NOVASCREEN.

[6] = biological target: T1, dopamine transporter (DAT) (Rattus norvegicus, UniProt P23977); assay: Displacement of [^3 H]WIN 35,428 binding (Dopamine Transporter Binding Assay); conditions: Table III; displacement of [^3 H]WIN 35,428, rat caudate putamen; % error in parentheses
T1 construct: brains removed to an ice-cooled dish for dissection of the caudate putamen; from tissue; host or cells: rat caudate putamen, washed membranes of male Sprague-Dawley rats (Taconic)
T1 sequence (P23977 whole entry): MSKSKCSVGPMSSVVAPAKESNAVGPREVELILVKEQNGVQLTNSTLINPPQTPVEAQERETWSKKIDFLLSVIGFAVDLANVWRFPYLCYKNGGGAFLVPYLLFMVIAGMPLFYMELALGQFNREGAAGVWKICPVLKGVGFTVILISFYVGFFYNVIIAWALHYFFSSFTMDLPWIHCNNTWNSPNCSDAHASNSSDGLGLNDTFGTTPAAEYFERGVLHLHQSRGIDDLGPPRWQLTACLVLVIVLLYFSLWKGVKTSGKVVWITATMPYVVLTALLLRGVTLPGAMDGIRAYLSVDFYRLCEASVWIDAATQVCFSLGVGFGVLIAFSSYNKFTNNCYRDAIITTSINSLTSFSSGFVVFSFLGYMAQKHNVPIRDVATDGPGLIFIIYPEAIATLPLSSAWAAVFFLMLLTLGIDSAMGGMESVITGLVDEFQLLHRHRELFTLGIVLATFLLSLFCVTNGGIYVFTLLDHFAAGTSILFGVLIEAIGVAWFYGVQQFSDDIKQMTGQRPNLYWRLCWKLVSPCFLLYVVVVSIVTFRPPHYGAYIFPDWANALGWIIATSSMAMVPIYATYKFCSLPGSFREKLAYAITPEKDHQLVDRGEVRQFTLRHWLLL

[7] = test system: dopamine uptake, rat caudate putamen; type: biochemical; conditions: Table V; rat caudate putamen; read-out: [^3 H]DA Uptake Inhibition IC50
[8] = biological target: T2, muscarinic m2 receptors (Rattus norvegicus, UniProt P10980); assay: Muscarinic m2 receptor binding ([^3 H]AFDX 384), NOVASCREEN; conditions: Table III
T2 sequence (P10980 1-466): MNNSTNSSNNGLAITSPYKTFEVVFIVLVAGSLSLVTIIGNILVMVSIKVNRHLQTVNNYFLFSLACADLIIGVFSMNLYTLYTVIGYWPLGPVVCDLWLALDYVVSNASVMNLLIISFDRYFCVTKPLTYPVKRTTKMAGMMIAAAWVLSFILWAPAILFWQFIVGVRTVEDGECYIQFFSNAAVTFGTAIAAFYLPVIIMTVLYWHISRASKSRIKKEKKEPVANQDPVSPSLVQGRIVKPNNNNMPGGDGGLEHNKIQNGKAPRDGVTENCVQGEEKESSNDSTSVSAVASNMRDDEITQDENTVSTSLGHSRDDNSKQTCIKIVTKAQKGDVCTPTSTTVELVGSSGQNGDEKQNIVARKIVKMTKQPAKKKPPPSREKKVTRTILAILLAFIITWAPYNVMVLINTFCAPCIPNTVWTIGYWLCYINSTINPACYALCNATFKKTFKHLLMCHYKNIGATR
Source text: as §1

[9] = biological target: T3, muscarinic m1 receptors (Rattus norvegicus, UniProt P08482); assay: biochemical; type: binding; conditions: Table III; read-out: m1, Ki
T3 sequence (P08482 1-460): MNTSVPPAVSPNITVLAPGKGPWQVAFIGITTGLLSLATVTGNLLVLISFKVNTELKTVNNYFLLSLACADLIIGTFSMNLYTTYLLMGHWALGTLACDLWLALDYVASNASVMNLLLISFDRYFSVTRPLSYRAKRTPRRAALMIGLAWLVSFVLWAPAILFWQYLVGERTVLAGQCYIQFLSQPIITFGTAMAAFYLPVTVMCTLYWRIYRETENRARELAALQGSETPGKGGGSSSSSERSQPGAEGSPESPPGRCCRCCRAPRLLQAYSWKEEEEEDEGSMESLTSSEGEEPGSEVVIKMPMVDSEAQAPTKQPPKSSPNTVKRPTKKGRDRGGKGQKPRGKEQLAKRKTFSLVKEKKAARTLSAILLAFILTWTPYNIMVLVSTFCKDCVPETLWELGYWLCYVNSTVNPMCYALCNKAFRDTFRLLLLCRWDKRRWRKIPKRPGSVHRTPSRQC

[10] = biological target: T1, dopamine transporter (DAT); conditions: read-out: DAT Ki, nM (% error); cited from earlier work

| SMILES | stimulation of locomotor activity [1] | CNS stimulatory activity [2] | Ki [3] [µM] | inhibition at 10 µM [3] [%] | Ki ([3]; read-out: NET, Ki, Table IV) [µM] | potency at dopamine transporter as compared to norepinephrine transporter [4] [fold] | Ki ([5]; Table III, footnote d, read-out: 5HTT Ki value in nM (bracketed)) [nM] | inhibition at 10 µM [5] [%] | Ki [6] [nM] | IC50 [7] [µM] | Ki [8] [µM] | Ki [9] [µM] | Ki [10] [nM] |
| --- | --- | --- | --- | --- | --- | --- | --- | --- | --- | --- | --- | --- | --- |
| CN1[C@@H]2CC[C@H]1C[C@@H](OC(c1ccccc1)c1ccccc1)C2 [Compound 2, 3α-(diphenylmethoxy)-1αH,5αH-tropane] | do not produce locomotor stimulant activity | exhibits CNS stimulatory activity in animal models |  |  |  |  |  |  |  |  |  |  |  |
| CN1[C@@H]2CC[C@H]1C[C@@H](OC(c1ccc(F)cc1)c1ccc(F)cc1)C2 [Compound 7c, 4',4"-difluoro-3α-(diphenylmethoxy)tropane] |  |  | > 8.5 | 30 | > 8.5 | > 700 | > 2440 | 62 |  |  |  |  |  |
| CCc1ccc(C(O[C@H]2C[C@H]3CC[C@@H](C2)N3C)c2ccccc2)cc1 (stereo partly drawn) [Compound 7q] |  |  |  | 32.7 |  |  |  | 42.7 | 520 | 0.984 | 0.703 | 0.0126 |  |
| CN1[C@@H]2CC[C@H]1C[C@@H](OC(c1ccccc1)c1ccc(O)cc1)C2 (stereo partly drawn) [Compound 7r, 3α-4'-Hydroxy-(diphenylmethoxy)tropane] |  |  |  | 27.3 |  |  |  | 23.3 | 297 | 0.677 | 0.0177 | 0.0021 |  |
| CN1[C@@H]2CC[C@H]1C[C@H](OC(c1ccccc1)c1ccc(Cl)cc1)C2 (stereo partly drawn) [Compound 10, 3β-4'-Chloro-(diphenylmethoxy)tropane] |  |  |  | 27.9 |  |  |  | 37.2 |  | 3.52 |  |  | 854 |

— patent US5792775A (priority 1996, dated 1998)
